# Source: US20190255073A1, “ESTERS OF 3-POLYAMINE DERIVATIVES OF BILE ACIDS FOR THE TREATMENT OF INFECTIONS” (VIRBAC, priority 2016, published 2019)
# Read-outs that look alike come from different tables or passages of the source.
# Tests used:
# CHO-K1 cells = assay: WST1 cytotoxicity test on CHO-K1 cells; assay type: cell-based, Chinese hamster; settings: Cricetulus griseus, read-out: IC50 (μg/mL) CHO
# Method: Test WST1 was used to measure the cytotoxic activity of the products. This is a colorimetric test which makes it possible to measure the viability and the degree of cell proliferation. It is based on cleavage of the colorless tetrazolium salts WST-1 (4-[3-(4-iodophenyl)-2-(4-nitrophenyl)-2H-5-tetrazolio]-1,3-benzene disulfonate) with mitochondrial dehydrogenases to the yellow-colored formazan derivative, which may be quantified by spectrophotometry at 420-480 nm.
# The WST1 test was performed on Chinese hamster ovary cells. The CHO-K1 cells (ATCC, USA) are kept in culture on McCoy's 5A medium supplemented with 10% fetal calf serum, 2 mM of L-glutamine and a mixture of penicillin-streptomycin (100 U/ml: 10 μg/mL). The culture is incubated at 37° C. under an atmosphere enriched in CO2 (5%), and subcultured every two days.
# The cells are transferred into 96-well plates (25 000 cells/mL) in whole McCoy's 5A medium, and maintained for 24 hours at 37° C. under a humid atmosphere enriched in CO2 (5%). Increasing concentrations of test products are added to the wells in double tests and 8 growth controls containing the cells in the medium alone are included in each series of tests. After 24 hours at 37° C. (5% CO2), the culture medium is removed, the cells are rinsed in phosphate buffer (PBS) and 50 μL of PBS containing 10% of reagent WST1 are added to each well. After 20 minutes of incubation at 37° C., the results are read by spectrophotometry at 450 nm.
# The results are expressed in dose-response relationships, modeled by nonlinear regression analysis using the TableCurve software. The 50% inhibitory concentration (IC50) represents the concentration of product that is capable of reducing the cell viability by 50%.
# S. aureus (340) = assay: MIC determination by microplate dilution, S. aureus animal strain; assay type: cell-based, Staphylococcus aureus; settings: Staphylococcus aureus, Gram-positive, Mueller-Hinton medium, 24 h, 37° C.
# Method: (§1) 1) Preparation of the Preculture
# (§2) A negative control (2 mL of sterile culture medium)
# (§3) A positive control (1940 μL of culture medium+40 μL of DMSO+20 μL of bacterial suspension) from a thawed biological strain (the biological strains are stored at −80° C. in glycerol).
# (§4) The tubes were incubated at 37° C. for 24 hours at 100 rpm.
# (§5) The microorganisms were handled under a type L2 laboratory fume cupboard and, before any handling, a UV cycle was programmed and only sterile material was used. […] The chemical compounds to be tested were prepared in a DMSO/methanol mixture (50/50) at a concentration of 5 mg/mL.
# (§6) 2) Preparation of the Microplate for the Determination of the Minimum Inhibitory Concentration (MIC)
# (§7) After 24 hours of incubation, a measurement of the optical density was taken using a spectrophotometer at 600 nm, collecting 100 μL of the bacterial suspension diluted in 900 μL of the sterile culture medium. This test required the use of a 96-well plate and the required volume of the microbial suspension to be seeded was calculated for an OD corresponding to a value equal to 0.01 in each well. In this plate, the first line corresponded to the negative control (195 μL of sterile culture medium in each well), the second line to the positive control (seeded culture medium supplemented with 2% of DMSO), the third line was loaded twice with bacterial suspension, 8 μL of test product were placed in each well. Thereafter, a 0.5 cascade dilution was performed from this line.
# (§8) The first column served as inhibition control. A sterile filter was then placed on the microplate, allowing the passage of gases but not of contaminants. The microplate was incubated at 37° C. under a humid atmosphere for 24 hours.
# (§9) NB: The medium used is Mueller-Hinton (MH) medium for bacteria. All the tests were performed in duplicate.
# (§10) 4) Reading of the Results
# (§11) After incubation, the filter was replaced with a transparent film, and an OD reading was then taken in an iEMS plate spectrophotometer at 620 nm. Calculation of the minimum inhibitory concentration (MIC) was performed.
# P. aeruginosa (1051575) [1] = assay: MIC determination by microplate dilution, P. aeruginosa animal strain; assay type: cell-based, Pseudomonas aeruginosa; settings: Pseudomonas aeruginosa, Gram-negative, Mueller-Hinton medium, 24 h, 37° C.
# Method: as §1, §2, §3, §4, §5, §6, §7, §8, §9, §10, §11
# E. coli (1956) = assay: MIC determination by microplate dilution, E. coli animal strain; assay type: cell-based, Escherichia coli; settings: Escherichia coli, Gram-negative, Mueller-Hinton medium, 24 h, 37° C.
# Method: as §1, §2, §3, §4, §5, §6, §7, §8, §9, §10, §11
# P. aeruginosa (1051575) [2] = assay: Potentiation of the doxycycline activity at 2 μg/mL; assay type: cell-based, Pseudomonas aeruginosa; settings: in combination with doxycycline 2 μg/mL; 24 h, 37°
# S. intermedius (1051997) = assay: MIC determination by microplate dilution, S. intermedius animal strain; assay type: cell-based, Staphylococcus intermedius; settings: Staphylococcus intermedius, Gram-positive, Mueller-Hinton medium, 24 h, 37° C.
# Method: as §1, §2, §3, §4, §5, §6, §7, §8, §9, §10, §11
# E. coli ATCC28922 = assay: MIC determination by microplate dilution, E. coli human strain; assay type: cell-based, Escherichia coli; settings: Escherichia coli, ATCC28922, Gram-negative, Mueller-Hinton medium, 24 h, 37° C.
# Method: as §1, §2, §3, §4, §5, §6, §7, §8, §9, §10, §11
# S. aureus ATCC25923 = assay: MIC determination by microplate dilution, S. aureus human strain; assay type: cell-based, Staphylococcus aureus; settings: Staphylococcus aureus, ATCC25923, Gram-positive, Mueller-Hinton medium, 24 h, 37° C.
# Method: as §1, §2, §3, §4, §5, §6, §7, §8, §9, §10, §11
# P. aeruginosa ATCC27853 = assay: MIC determination by microplate dilution, P. aeruginosa human strain; assay type: cell-based, Pseudomonas aeruginosa; settings: Pseudomonas aeruginosa, ATCC27853, Gram-negative, Mueller-Hinton medium, 24 h, 37° C.
# Method: as §1, §2, §3, §4, §5, §6, §7, §8, §9, §10, §11
# E. faecalis ATCC29212 = assay: MIC determination by microplate dilution, E. faecalis human strain; assay type: cell-based, Enterococcus faecalis; settings: Enterococcus faecalis, ATCC29212, Gram-positive, Mueller-Hinton medium, 24 h, 37° C.
# Method: as §1, §2, §3, §4, §5, §6, §7, §8, §9, §10, §11
# [3] = Table III, WST1, CHO-K1 cells, 24 h, concentration reducing cell viability by 50%
SMILES,"IC50 (CHO-K1 cells; CHO-K1, 24 h)",MIC (S. aureus (340)),MIC (P. aeruginosa (1051575) [1]),MIC (E. coli (1956)),MIC - P. aeruginosa (1051575): content of compound of formula (I) to restore the doxycycline activity (at 2 μg/mL) (P. aeruginosa (1051575) [2]),MIC (S. intermedius (1051997)),MIC (E. coli ATCC28922),IC50 (CHO-K1 cells; [3]),MIC (S. aureus ATCC25923),MIC (P. aeruginosa ATCC27853),MIC (E. faecalis ATCC29212)
"COC(=O)CC[C@@H](C)[C@H]1CCC2C3CCC4C[C@@H](NCCCNCCCN)CC[C@]4(C)C3CC[C@@]21C (stereo partly drawn) [(18), methyl 3β-norspermidinolithocholate]",80 µg/mL,0.7 µg/mL,3 µg/mL,3 µg/mL,3 µg/mL,0.7 µg/mL,32 µg/mL,–,–,–,–
"CC(C)OC(=O)CC[C@@H](C)[C@H]1CCC2C3C(CC[C@@]21C)[C@@]1(C)CC[C@H](NCCNCCNCCNCCNCCN)CC1C[C@@H]3O (stereo partly drawn) [(24), isopropyl 3β-(pentaethylenehexamine)ursodeoxycholate]",–,32 µg/mL,130 µg/mL,65 µg/mL,–,8 µg/mL,–,–,–,–,–
"COC(=O)CC[C@@H](C)[C@H]1CCC2C3CCC4C[C@@H](NCCNCCNCCNCCNCCN)CC[C@]4(C)C3CC[C@@]21C (stereo partly drawn) [(25), methyl 3β-(pentaethylenehexamine)lithocholate]",–,8 µg/mL,60 µg/mL,30 µg/mL,–,4 µg/mL,30 µg/mL,76 µg/mL,8 µg/mL,60 µg/mL,15 µg/mL
"COC(=O)CC[C@@H](C)[C@H]1CCC2C3C(C[C@H](O)[C@@]21C)[C@@]1(C)CC[C@H](NCCCN(C)CCCN)C[C@H]1C[C@H]3O (stereo partly drawn) [(33), methyl 3β-(bis(3-aminopropyl)methylamine)cholate]",–,14 µg/mL,50 µg/mL,50 µg/mL,–,14 µg/mL,27 µg/mL,126 µg/mL,14 µg/mL,27 µg/mL,14 µg/mL
"CC(C)OC(=O)CC[C@@H](C)[C@H]1CCC2C3C(C[C@H](O)[C@@]21C)[C@@]1(C)CC[C@H](NCCN(CCN)CCN)CC1C[C@H]3O (stereo partly drawn) [(35), isopropyl 3β-(tris(2-aminoethyl)amine)cholate]",–,–,56 µg/mL,56 µg/mL,7 µg/mL,14 µg/mL,28 µg/mL,–,28 µg/mL,56 µg/mL,28 µg/mL
"CC(C)OC(=O)CC[C@@H](C)[C@H]1CCC2C3C(CC[C@@]21C)[C@@]1(C)CC[C@H](NCCCN(CCCN)CCCN)CC1C[C@@H]3O (stereo partly drawn) [(42), isopropyl 3β-(tris(3-aminopropyl)amine)ursodeoxycholate]",–,30 µg/mL,60 µg/mL,120 µg/mL,4 µg/mL,15 µg/mL,–,–,–,–,–
"COC(=O)CC[C@@H](C)[C@H]1CCC2C3CCC4C[C@@H](NCCCN(C)CCCN)CC[C@]4(C)C3CC[C@@]21C (stereo partly drawn) [(45), methyl 3β-(bis(3-aminopropyl)methylamine)lithocholate]",–,6 µg/mL,26 µg/mL,6 µg/mL,–,3 µg/mL,26 µg/mL,46 µg/mL,12 µg/mL,26 µg/mL,12 µg/mL
"COC(=O)CC[C@@H](C)[C@H]1CCC2C3CCC4C[C@@H](NCCCN(CCCN)CCCN)CC[C@]4(C)C3CC[C@@]21C (stereo partly drawn) [(46), methyl 3β-(tris(3-aminopropyl)amine)lithocholate]",–,7 µg/mL,28 µg/mL,28 µg/mL,–,4 µg/mL,56 µg/mL,30 µg/mL,14 µg/mL,28 µg/mL,14 µg/mL
"COC(=O)CC[C@@H](C)[C@H]1CCC2C3C(C[C@H](O)[C@@]21C)[C@@]1(C)CC[C@H](NCCCNCCCN)C[C@H]1C[C@H]3O (stereo partly drawn) [Compound (5), methyl 3β-norspermidinocholate]",–,7 µg/mL,–,27 µg/mL,–,2 µg/mL,14 µg/mL,–,3 µg/mL,7 µg/mL,3 µg/mL
"COC(=O)CC[C@@H](C)[C@H]1CCC2C3C(CC[C@@]21C)[C@@]1(C)CC[C@H](NCCCNCCCNCCCN)CC1C[C@H]3O (stereo partly drawn) [Compound (8), methyl 3β-norsperminochenodeoxycholate]",22 µg/mL,4 µg/mL,7 µg/mL,29 µg/mL,1 µg/mL,2 µg/mL,15 µg/mL,–,4 µg/mL,–,–
"CC(C)OC(=O)CC[C@@H](C)[C@H]1CCC2C3CCC4C[C@@H](NCCCNCCCNCCCN)CC[C@]4(C)C3CC[C@@]21C (stereo partly drawn) [Compound (15), isopropyl 3β-norsperminolithocholate]",15 µg/mL,7 µg/mL,2 µg/mL,7 µg/mL,2 µg/mL,1 µg/mL,14 µg/mL,–,7 µg/mL,–,–
"COC(=O)CC[C@@H](C)[C@H]1CCC2C3CCC4C[C@@H](NCCCNCCCNCCCN)CC[C@]4(C)C3CC[C@@]21C (stereo partly drawn) [Compound (17), methyl 3β-norsperminolithocholate]",–,4 µg/mL,7 µg/mL,7 µg/mL,–,4 µg/mL,28 µg/mL,14 µg/mL,16 µg/mL,28 µg/mL,4 µg/mL
